We go through 22 compounds from patent US20220040255A1, “CHEMOTHERAPEUTIC REMODELING OF THE GUT MICROBIOME” (THE SCRIPPS RESEARCH INSTITUTE, priority 2018, published 2022).

The assay deals with gut microbiota from cecum of LDLr−/− mice. Description: in vitro en masse screening assay (cecum culture, 16S rRNA sequencing). Type of assay: cell-based. On the procedure:
We have established the following in vitro compound screening protocol for en masse gut microbiome remodeling. We obtain fresh gut microbiome content from LDLr^-/- mice conditioned for at least two weeks on WD by surgically removing cecum under anaerobic conditions. These samples are then mixed with growth media, distributed in 96-well plates, and incubated overnight in the presence of the test peptides. The activity and selectivity of each peptide for remodeling the gut microbiota community was assessed en masse by 16S rRNA sequencing of each well. A number of challenges had to be addressed in developing this protocol, including inoculum handling, choice of growth media, assay duration, etc. Our current assay culture condition maintains 50 bacterial genera (overnight culture), which is fairly representative of the 67 genera found in the uncultured community (Table 2). We used a distance scoring algorithm for a more refined compound selection, in which peptides that remodel the microbiota community most completely from the dysfunctional state (WD fed) toward the functional state (CHD fed) are scored higher. Briefly, we first eliminate cyclic D,L-α-peptides that have broad-spectrum antibacterial activity (inhibit >95% of growth of ≥25% of species in the community). The remaining compounds are then ranked based on how well they suppressed the bacterial species that grew in abundance in WD-fed mice. […] Among these, 40 genera decreased while 14 genera increased in abundance by WD feeding. Within the increased 11 genera, there were 19 bacterial species that were also present in our in vitro culture system. Accordingly, compounds were scored highly when they reduced the levels of 19 bacterial species (lowest summed differences in relative abundance) that were increased by WD feeding to be more similar to their levels in a CHD-fed microbiome (see Table 3 for peptide ranking). Based on these analyses, we chose two peptides for further in vivo validation and efficacy studies: the cationic peptide 1, […] NO:1), and the neutral peptide 11, […] NO:11), which ranked high within their respective peptide clusters. In vitro cecum culture and peptide screening. We screened a number of parameters to optimize the in vitro culture condition for maximal bacterial diversity in liquid culture, including a survey of several different growth media, dilution factors for plate inoculation, and incubation times; further details of the development of this in vitro screen will be reported elsewhere. Female LDLr^-/- mice (8-10 weeks of age) were fed a WD for two weeks. Cecum harvest and all assay steps were performed under anaerobic conditions (Coy Laboratory anaerobic chamber). Cecum contents from three mice were pooled for the assay to provide enough material and to minimize the individual variation in gut microbiome. Cecum contents were suspended in PBS (1.5 ml PBS per 100 mg of cecum content). The mixture was vortexed for 5 min and the supernatant was transferred to a new tube. The cecum content mixture was further diluted in Chopped Meat Carbohydrate Broth (BD 297307) for in vitro peptide screening. […] The concentration of peptide stock in DMSO was calculated based on A280 measurement. For each peptide, an initial 20 mM stock was made in DMSO and diluted to 1 mM in 10% sucrose. From that, a 0.64 mM peptide dilution in 10% sucrose was prepared, and each peptide was further diluted into the assay for peptide screening at two concentrations (64 μM and 16 μM). Bacterial DNA was harvested after 24-hour peptide treatment and isolated with Microbial DNA isolation kit (Mo Bio) following the manufacturer's instructions. 16S rRNA gene sequencing and processing. PCR amplicons of the V3-V4 16S rRNA region were amplified and sequenced using an Illumina MiSeq platform. […]

Where [1] appears, read: ranking in remodeling WD gut microbiota toward CHD microbiota composition.

On to c[YlYlYkSo], for which, under setting [1], the “ranked distance to chow” value was found to be 13.

c[FwHlYoHq]: the “ranked distance to chow” value under setting [1] came out at 18. The same measure, in the same setting: as for c[YlWyKhAe], the figure is 23. For c[WlLlKkKs] [WllLlKkKs], the “ranked distance to chow” value under setting [1] came to 20. On the same count and under the same terms, with c[wFkSkSkS] the figure was 19. Same read-out and setting: with c[wLwSeQhK] the figure was 22; with c[WwQoHdKt], 15; with c[wLwSeQeO] [wLwSeQsO], 16. On the same count and under the same terms, with c[wLlEeKkN] the figure was 21; with c[wLfKwKkK], 6. Take c[wWwKsKsK]: the “ranked distance to chow” value under setting [1] is reported as 12. As for c[WwLlHsKk, the “ranked distance to chow” value under setting [1] is listed as 3.

In the case of c[LlWhQk], the “ranked distance to chow” value under setting [1] was determined as 5.

Consider c[fWwYqHhQ], for which the “ranked distance to chow” value under setting [1] stood at 25. Still for that read-out and setting: as for c[wLlWkKkS], the figure is 10.

On to `O=C(N[C@H](CO)[C@H](O)c1ccc([N+](=O)[O-])cc1)C(Cl)Cl` [Chm, chloramphenicol, reference compound], for which the “ranked distance to chow” value by setting is: (Chm- 2 μg) 4; (Chm- 8 μg) 24. Consider c[wLhLwKrK], for which the “ranked distance to chow” value under setting [1] amounted to 11.

Turning to c[YwElYsKq], the “ranked distance to chow” value under setting [1] is recorded as 17. Same read-out and setting: with c[wLeLwKsK] the figure was 9. Consider c[lFlAlKhK], for which the “ranked distance to chow” value under setting [1] is recorded as 8. Take c[WlWlWkSk]: under setting [1], the “ranked distance to chow” value is given as 1. With c[lLwHoK], the “ranked distance to chow” value under setting [1] worked out at 7.
